According to patent US20220289708A1, “SUBSTITUTED N-PHENYL URACILS, SALTS THEREOF AND THEIR USE AS HERBICIDAL AGENTS” (Bayer Aktiengesellschaft, priority 2019, published 2022):

What was measured:
Type in all cases: in vivo
[1] = system: Echinochloa crus-galli; assay: Pre-emergence herbicidal action
Summary of the method: (§1)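 Percentages are visual ratings against untreated controls, where 100% means dead plants and 0% means no difference. Compounds were applied at 80 g/ha or lower to the soil over freshly sown seeds, then pots stayed in the greenhouse about 3 weeks.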

[2] = system: Abutilon theophrasti; assay: Pre-emergence herbicidal action; conditions: application rate 20 g/ha
Summary of the method: as §1

[3] = system: Alopecurus myosuroides; assay: Pre-emergence herbicidal action
Summary of the method: as §1

[4] = system: Avena fatua; assay: Pre-emergence herbicidal action
Summary of the method: as §1

[5] = system: Veronica persica; assay: Pre-emergence herbicidal action; conditions: application rate 20 g/ha
Summary of the method: as §1

[6] = system: Matricaria inodora; assay: Pre-emergence herbicidal action; conditions: application rate 20 g/ha
Summary of the method: as §1

[7] = system: Setaria viridis; assay: Pre-emergence herbicidal action; conditions: application rate 20 g/ha
Summary of the method: as §1

[8] = system: Digitaria sanguinalis; assay: Pre-emergence herbicidal action; conditions: application rate 20 g/ha
Summary of the method: as §1

[9] = system: Viola tricolor; assay: Pre-emergence herbicidal action; conditions: application rate 20 g/ha
Summary of the method: as §1

[10] = system: Pharbitis purpurea; assay: Pre-emergence herbicidal action; conditions: application rate 20 g/ha
Summary of the method: as §1

[11] = system: Lolium rigidum; assay: Pre-emergence herbicidal action; conditions: application rate 80 g/ha
Summary of the method: as §1

[12] = system: Polygonum convolvulus; assay: Pre-emergence herbicidal action; conditions: application rate 20 g/ha
Summary of the method: as §1

[13] = system: Amaranthus retroflexus; assay: Pre-emergence herbicidal action; conditions: application rate 20 g/ha
Summary of the method: as §1

[14] = system: Glycine max; assay: Pre-emergence crop plant compatibility; conditions: application rate 20 g/ha, observed effect on crop vs untreated controls after about 3 weeks
From the text: (§2) B. Pre-Emergence Herbicidal Action and Crop Plant Compatibility
(§3) Seeds of monocotyledonous and dicotyledonous weed plants and crop plants were placed in plastic or organic planting pots and covered with soil. The compounds of the invention, formulated in the form of wettable powders (WP) or as emulsion concentrates (EC), were then applied to the surface of the covering soil as aqueous suspension or emulsion with addition of 0.5% additive at a water application rate equivalent to 600 l/ha (converted). After the treatment, the pots were placed in a greenhouse and kept under good growth conditions for the test plants. After about 3 weeks, the effect of the preparations was scored visually in comparison with untreated controls as percentages. For example, 100% activity=the plants have died, 0% activity=like control plants.
(§4) Tables B14 to B16 below show the crop plant compatibilities of selected compounds of the general formula (I) according to Tables I.1 to I.36 at an application rate corresponding to 20 g/ha, which were obtained in experiments according to the experimental procedure mentioned above. Here, the observed effects on selected crop plants are stated in comparison to the untreated controls (values in %).

[15] = system: Oryza sativa; assay: Post-emergence crop plant compatibility; conditions: application rate 5 g/ha
Summary of the method: (§5)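 Greenhouse crop plants in sandy loam sprayed at one-leaf stage (2-3 weeks after sowing) with WP or EC formulations plus 0.5% additive, 600 l/ha water, at 5 g/ha or 20 g/ha. Damage scored visually after about 3 weeks as % versus untreated controls (100% = plants dead).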

[16] = system: Triticum aestivum; assay: Post-emergence crop plant compatibility; conditions: application rate 5 g/ha
Summary of the method: as §5

[17] = system: Echinochloa crus-galli; assay: Post-emergence herbicidal action; conditions: application rate 5 g/ha, rated visually after about 3 weeks vs untreated controls
Summary of the method: (§6)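 Greenhouse-grown plants in sandy loam treated at one-leaf stage, 2–3 weeks after sowing, with WP or EC formulations sprayed as aqueous suspension/emulsion plus 0.5% additive at 600 l/ha water; rates 20 g/ha and less. Visual rating after about 3 weeks versus untreated controls (100% = plants dead, 0% = like control).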

[18] = system: Abutilon theophrasti; assay: Post-emergence herbicidal action; conditions: application rate 5 g/ha, rated visually after about 3 weeks vs untreated controls
Summary of the method: as §6

[19] = system: Veronica persica; assay: Post-emergence herbicidal action; conditions: application rate 5 g/ha
Summary of the method: as §6

[20] = system: Digitaria sanguinalis; assay: Post-emergence herbicidal action; conditions: application rate 5 g/ha, rated visually after about 3 weeks vs untreated controls
Summary of the method: as §6

[21] = system: Pharbitis purpurea; assay: Post-emergence herbicidal action; conditions: application rate 5 g/ha, rated visually after about 3 weeks vs untreated controls
Summary of the method: as §6

[22] = system: Amaranthus retroflexus; assay: Post-emergence herbicidal action; conditions: application rate 5 g/ha, rated visually after about 3 weeks vs untreated controls
Summary of the method: as §6

[23] = system: Zea mays; assay: Pre-emergence crop plant compatibility; conditions: application rate 20 g/ha
From the text: as §2, §3, §4

[24] = system: Triticum aestivum; assay: Pre-emergence crop plant compatibility; conditions: application rate 20 g/ha
From the text: as §2, §3, §4

[25] = system: Alopecurus myosuroides; assay: Post-emergence herbicidal action; conditions: application rate 5 g/ha, rated visually after about 3 weeks vs untreated controls
Summary of the method: as §6

[26] = system: Matricaria inodora; assay: Post-emergence herbicidal action; conditions: application rate 5 g/ha, rated visually after about 3 weeks vs untreated controls
Summary of the method: as §6

[27] = system: Setaria viridis; assay: Post-emergence herbicidal action; conditions: application rate 5 g/ha, rated visually after about 3 weeks vs untreated controls
Summary of the method: as §6

[28] = system: Viola tricolor; assay: Post-emergence herbicidal action; conditions: application rate 5 g/ha
Summary of the method: as §6

[29] = system: Polygonum convolvulus; assay: Post-emergence herbicidal action; conditions: application rate 5 g/ha
Summary of the method: as §6

SMILES	Abutilon theophrasti (efficacy in %) [2] [%]	Avena fatua (efficacy in %) ([4]; application rate 80 g/ha) [%]	Veronica persica (efficacy in %) [5] [%]	Matricaria inodora (efficacy in %) [6] [%]	Setaria viridis (efficacy in %) [7] [%]	Digitaria sanguinalis (efficacy in %) [8] [%]	Viola tricolor (efficacy in %) [9] [%]	Pharbitis purpurea (efficacy in %) [10] [%]	Lolium rigidum (efficacy in %) [11] [%]	Polygonum convolvulus (efficacy in %) [12] [%]	Amaranthus retroflexus (efficacy in %) [13] [%]	Oryza sativa (efficacy in %) [15] [%]	Triticum aestivum (efficacy in %) [16] [%]	Echinochloa crus-galli (efficacy in %) [17] [%]	Abutilon theophrasti (efficacy in %) [18] [%]	Veronica persica (efficacy in %) [19] [%]	Digitaria sanguinalis (efficacy in %) [20] [%]	Pharbitis purpurea (efficacy in %) [21] [%]	Amaranthus retroflexus (efficacy in %) [22] [%]	Triticum aestivum (efficacy in %) [24] [%]	further results
Cn1c(C(F)(F)F)cc(=O)n(-c2cc(Oc3cccnc3OCC(=O)OCCOC(F)(F)F)c(Cl)cc2F)c1=O [I.15-41]	100	90	100	100	100	100	100	100	100	100	100	20	20	100	100	100	100	100	100		Echinochloa crus-galli (efficacy in %) ([1]; application rate 80 g/ha): 100%; Alopecurus myosuroides (efficacy in %) ([3]; application rate 80 g/ha): 100%; Glycine max (efficacy in %) [14]: 20%
Cn1c(C(F)(F)F)cc(=O)n(-c2cc(Oc3cccnc3OCC(=O)OCCOCc3ccccc3)c(Cl)cc2F)c1=O [I.15-6]	100	100	100	100	100	100	100	100	100	100	100	20	20	100	100	100	100	100	100	10	Echinochloa crus-galli (efficacy in %) ([1]; application rate 80 g/ha): 100%; Alopecurus myosuroides (efficacy in %) ([3]; application rate 20 g/ha): 90%; Zea mays (efficacy in %) [23]: 0%
Cn1c(C(F)(F)F)cc(=O)n(-c2cc(Oc3cccnc3OCC(=O)OCC3NC(=O)NC3=O)c(Cl)cc2F)c1=O (centres unmarked) [I.15-280]	100		100	100	100	100	100	90	100	100	100		20	80	100	100	100	100	100	10	Echinochloa crus-galli (efficacy in %) ([1]; application rate 20 g/ha): 90%; Alopecurus myosuroides (efficacy in %) ([3]; application rate 20 g/ha): 90%; Avena fatua (efficacy in %) ([4]; application rate 20 g/ha): 80%; Glycine max (efficacy in %) [14]: 0%; Alopecurus myosuroides (efficacy in %) [25]: 90%; Matricaria inodora (efficacy in %) [26]: 90%; Setaria viridis (efficacy in %) [27]: 100%; Viola tricolor (efficacy in %) [28]: 100%; Polygonum convolvulus (efficacy in %) [29]: 100%
Cn1c(C(F)(F)F)cc(=O)n(-c2cc(Oc3cccnc3OCC(=O)OCC[Si](C)(C)C)c(Cl)cc2F)c1=O [I.15-211]	100	80	100	100	100	100	100	80	100	100	100	0	0	100	100	100	100	80	100	0	Echinochloa crus-galli (efficacy in %) ([1]; application rate 20 g/ha): 80%; Alopecurus myosuroides (efficacy in %) ([3]; application rate 80 g/ha): 100%; Zea mays (efficacy in %) [23]: 20%
